Assay results as given in patent publication US9676786B2, “Pharmacologically active compounds” (The University of Liverpool, priority 2013, dated 2017).
Read-outs that look alike come from different tables or passages of the source.

How the values were obtained:
[1] = Pharmacokinetic evaluation, oral dosing in rats; type: in vivo, rat; conditions: 10 mg/kg oral; for AUC(0-inf) / half-life / Cmax / Tmax: rat, plasma, po, 10 mg/kg; for Cmax: read-out: Cmax; for Tmax: read-out: Tmax
Procedure: • Dose—10 mg/kg (5 mL/kg) • Route—ORAL • Vehicles—10% DMSO/10% Solutol and SSV • Time—24 h • Procedure Number—6 Vehicles • 10% DMSO/10% Solutol/80% Saline • 1) Compound was weighed out into a clean vial. • 2) DMSO was added into the vial; the vial was vortexed and sonicated it for 15 min. • 3) Solutol HS 15 was heated at 50° C. until a liquid formed, and then was added into the vial. The vial was vortexed for 1-2 min. • 4) 0.9% Saline solution was added to the vial. The vial was vortexed and then sonicated for 10 min. Standard Suspension Vehicle (SSV) • 1) A solution of SSV was made using 0.5% Sodium carboxymethylcellulose, 0.5% Benzyl alcohol, 0.4% Tween80 and 98.6% saline (0.9%) • 2) Compound was weighed out into a clean vial • 3) SSV solution was added into the vial; the vial was vortexed and sonicated it for 15 min. Fasted Rats
Fasted rats were fasted overnight and given access to food immediately after dosing.
• 1) Rats were manually restrained and given a 10 mg/kg oral dose of compound at 5 mL/kg. • 2) At designated time points (0.25, 0.5, 1, 3, 5, 7 and 24 hours) the rats were anaesthetised using isoflurane. • 3) Approximately 300 μL of blood was taken from the tail vein using a 1.5 inch needle treated with heparin and collected into 1.5 mL eppendorf tubes. • 4) After sampling, pressure was applied to the puncture until bleeding ceased. The animals were returned to their cages and given free access to food and water. • 5) Blood samples were stored on ice and then centrifuged at 13,000 rpm for 15 min to separate the plasma. • 6) 150 μL of the plasma was treated with 300 μL of ACN:MeOH (1:1) solution containing the internal standard. The samples were then centrifuged for a further 15 min at 13,000 rpm. • 7) 200 μL of the supernatant was collected and placed in LC-MS vials for analysis. All samples were stored at −80° C. Results

Rat microsomal stability = type: in vitro ADME; conditions: for half-life at 1 μM: rat, rat microsomes
Excerpt: Rat and human microsomal stability data was obtained using well established protocols known to those skilled in the art.

[2] = 10% DMSO/10% Solutol/80% Saline, fasted rats
[3] = 10% DMSO/10% Solutol/80% Saline, non-fasted rats

Q: With `CC(C)c1cc(C(=O)N2CCOCC2)cc(C(C)C)c1O` [LT-01-25, (4-(hydroxy)-3,5-diisopropylphenyl)(morpholino)methanone] as the molecule, how does the “CL (area)/kg” value [1, 2] read?
A: 19.532 mL/min/kg

Q: And the “Vd (area)/kg” value [1, 2]?
A: 2.3006 L/kg

Q: What about the “CL (area)/kg” value [1, 3] of the same molecule?
A: 8.423 mL/min/kg

Q: What about the “Vd (area)/kg” value [1, 3] of the same molecule?
A: 0.9737 L/kg

Q: What about the “CL (area)/kg” value ([1]; SSV, fasted rats) of the same molecule?
A: 9.193 mL/min/kg

Q: And the “Vd (area)/kg” value ([1]; SSV, fasted rats)?
A: 1.1426 L/kg

Q: And the “CL (area)/kg” value ([1]; SSV, non-fasted rats)?
A: 8.662 mL/min/kg

Q: And the “Half Life” value ([1]; SSV, non-fasted rats)?
A: 3.6 h

Q: What about the “Vd (area)/kg” value ([1]; SSV, non-fasted rats) of the same molecule?
A: 2.7109 L/kg

Q: And the AUC(0-inf) [1, 2]?
A: 8530 ng·h/mL

Q: What about the half-life [1, 2] of the same molecule?
A: 1.4 h

Q: And the Cmax [1, 2]?
A: 2420 ng/mL

Q: And the Tmax [1, 2]?
A: 0.3 h

Q: What about the AUC(0-inf) [1, 3] of the same molecule?
A: 20400 ng·h/mL

Q: What about the half-life [1, 3] of the same molecule?
A: 1.4 h

Q: And the Cmax [1, 3]?
A: 1710 ng/mL

Q: What about the Tmax [1, 3] of the same molecule?
A: 4 h

Q: And the AUC(0-inf) ([1]; SSV, fasted rats)?
A: 18100 ng·h/mL

Q: And the half-life ([1]; SSV, fasted rats)?
A: 1.4 h

Q: And the Cmax ([1]; SSV, fasted rats)?
A: 2590 ng/mL

Q: And the Tmax ([1]; SSV, fasted rats)?
A: 1 h

Q: And the AUC(0-inf) ([1]; SSV, non-fasted rats)?
A: 19000 ng·h/mL

Q: And the half-life ([1]; SSV, non-fasted rats)?
A: 3.62 h

Q: What about the Cmax ([1]; SSV, non-fasted rats) of the same molecule?
A: 2120 ng/mL

Q: And the Tmax ([1]; SSV, non-fasted rats)?
A: 0.25 h

Q: And the Cl (Rat microsomal stability; Rat microsomes, 1 μM)?
A: 3.35 mL/min/kg

Q: What about the “Cl (values marked *)” value (Rat microsomal stability; Rat microsomes, 1 μM, second set marked *) of the same molecule?
A: 1.07 mL/min/kg (Cl)*

Q: What about the half-life at 1 μM (Rat microsomal stability; read-out: t1/2) of the same molecule?
A: 12.3 h

Q: What about the half-life at 1 μM (Rat microsomal stability; second set marked *, read-out: t1/2 (values marked *)) of the same molecule?
A: 19.2 h
